Earlier results, collected in patent US8980874B2, “Method and composition for treating diabetic ketoacidosis” (Midwestern University, priority 2009, dated 2015).

What was measured:
BBB permeability = details: repeated intracisternal administration of ET-1 in dogs and rats; cited from earlier work
[1] = tested on: rat model of embolic stroke; details: rat model of embolic stroke where rtPA was used; cited from earlier work

## CC1(C)CC[C@]2(C(=O)[O-])CC[C@]3(COC(=O)/C=C/c4cc([O-])ccc4NC(=O)/C=C/C(=O)O)C(=CC[C@@H]4[C@@]5(C)CCC(=O)C(C)(C)[C@@H]5CC[C@]43C)[C@@H]2C1.[Na+].[Na+] [S-0139]
BBB permeability
  effect on ET-1 induced increase in BBB permeability: blocked
[1]
  neuroprotection / rtPA evoked disruption of BBB: provided neuroprotection by suppressing rtPA evoked disruption of BBB
